Experimental data taken from patent US4547508A, “1-Phenylisoquinoline derivatives, pharmaceutical products containing these compounds and their use” (Hoechst Aktiengesellschaft, priority 1982, dated 1985).

Legend:
[1] = test system: tetrabenazine-induced ptosis; assay: Prevention of the ptosis induced by tetrabenazine in mice after intraperitoneal administration; assay type: in vivo, male mice (Gassner, NMRI); conditions: ip; mouse, i.p., 30 minutes before TBZ 40 mg/kg i.p.; dose which reduces the mean ptosis index (maximum 4) by 50%
Experimental: B. Prevention of the ptosis induced by tetrabenazine in mice after intraperitoneal administration
The experimental animals used were male mice (Gassner, NMRI) of body weight 20-26 g. 5 animals were tested in each group. The compounds were suspended in 1% strength methylhydroxyethylcellulose and administered intraperitoneally (i.p.) to the animals in a volume of 10 ml/kg of body weight. The compounds according to the invention were tested in doses of 5, 10 and 20 mg/kg i.p. The control group merely received 10 ml/kg of MH not containing active ingredient i.p.
The componds were administered to the animals 30 minutes before the i.p. administration of tetrabenazine (TBZ). The control group merely received 1% strength MH and TBZ in accordance with the same schedule as that for the animals treated with the test substances.
30 minutes after the TBZ injection (TBZ: 40 mg/kg i.p.), the animals were placed in individual plastic boxes and the ptosis was assessed 1 minute later in accordance with the scheme below:
Eyes closed = 4 (100% ptosis)
Eyes 3/4 closed = 3 (75% ptosis)
Eyes 1/2 closed = 2 (50% ptosis)
Eyes 1/4 closed = 1 (25% ptosis)
Eyes open = 0 (0% ptosis)
The dose defined as the ED50 is that which reduces the mean ptosis index (maximum 4) by 50%.

[2] = Acute toxicity in the mouse after intraperitoneal administration (ALD50); set-up: species or system male mice (Gassner, NMRI); conditions: in vivo, ip, deaths within 24 hours after administration
Experimental: A. Acute toxicity in the mouse after intraperitoneal administration (ALD50)
The experimental animals used were male mice (Gassner, NMRI) of body weight 20-30 g. 6 animals were tested in each group. The compounds were suspended in 1% strength methylhydroxyethylcellulose (MH) and administered intraperitoneally (i.p.) to the animals in a volume of 10 ml/kg of body weight. The compounds according to the invention were administered in doses of 3, 10, 30 and 100 mg/kg i.p.
The acute lethal dose (ALD50) was determined graphically from the number of animals which died within 24 hours after administration of the compound.

[3] = test system: norepinephrine uptake (synaptosomes from rat brain); assay: Inhibition of reuptake of norepinephrine in synaptosomes; assay type: biochemical; conditions: 14C-norepinephrine, pH 7.4, 37° C., 4 minutes
Experimental: C. Inhibition of reuptake of norepinephrine in synaptosomes
Synaptosomes from rat brain were isolated by the method of Whittaker (Handbook of Neurochemistry 2, 327-364, Editor A. Lajtha; London and New York, 1969) and the uptake of monoamine was measured by the method of Schacht and Heptner (Biochemical Pharmac. 23, 3413-3422). The ^14 C-norepinephrine uptake was measured in a Krebs-Henseleit bicarbonate buffer pH 7.4 which contained 11 millimoles of glucose. 2.5 ml of the suspension of synaptosomes were incubated with labeled norepinephrine at 37° C. in the presence or absence of the test substance. The incubation time was 4 minutes. Further uptake was then stopped by cooling in ice. In order to exclude non-specific adsorption, control samples were incubated at 0° C. under otherwise identical conditions.
The amounts of norepinephrine taken up were measured using the membrane filtration technique using a Millipore sampling manifold with cellulose nitrate filters of 25 mm diameter and 0.6 micrometer pore size. The synaptosomes were collected under reduced pressure and the radioactivity was determined in a Packard Tricarb scintillation counter. The amount of collected norepinephrine has been reported as a percentage of the radioactivity which was added to the incubation mixture.
The IC50 values (inhibition concentration) in the Table 1 below indicate the concentration of the test substances which show 50% inhibition of the uptake of ^14 C-norepinephrine.

Row | Structure (SMILES) | ED50 [1] [mg/kg] | LD50 at 24 h [2] [mg/kg] | IC50 [3] [µM]
1 | CCN1CC=C(c2cc3ccccc3c(-c3ccccc3C)n2)CC1 [Example 2, 3-(1-Ethyl-1,2,5,6-tetrahydro-4-pyridyl)-1-(2-methylphenyl)isoquinoline] | 1.4 | 100 | 
2 | Cc1ccccc1-c1nc(C2=CCNCC2)cc2ccccc12 [Example 3, 1-(2-Methylphenyl)-3-(1,2,5,6-tetrahydro-4-pyridyl)isoquinoline] | 0.13 | 210 | 0.0056
3 | CN1CC=C(c2cc3ccccc3c(-c3ccccc3Cl)n2)CC1 [Example 6] | 0.79 | 100 | 0.033
4 | CN1CC=C(c2cc3ccccc3c(-c3ccccc3F)n2)CC1 [Example 8] | 0.54 | 85 | 0.01
5 | C=CCN1CC=C(c2cc3ccccc3c(-c3ccccc3C)n2)CC1 [Example 11] | 0.49 | 300 | 
6 | C1=C(c2cc3ccccc3c(-c3ccccc3)n2)CCNC1 [Example 13] | 0.5 | 300 | 0.0062
7 | CN1CCC=C(c2cc3ccccc3c(-c3ccccc3)n2)C1 [Example 19] | 3.3 | 40 | 0.05
8 | C1=C(c2cc3ccccc3c(-c3ccccc3)n2)CNCC1 [Example 20] | 0.33 | 75 | 0.013
9 | c1ccc(-c2nc(C3CCNCC3)cc3ccccc23)cc1 [Example 21, 1-Phenyl-3-(4-piperidinyl)isoquinoline] | 0.8 | 75 | 0.017
10 | C=CCN1CCC(c2cc3ccccc3c(-c3ccccc3C)n2)CC1 [Example 23, 3-(1-Allyl-4-piperidinyl)-1-(2-methylphenyl)isoquinoline] | 3 | 55 | 
11 | CN1CCC(c2cc3ccccc3c(-c3ccccc3)n2)CC1 [Example 25] | 6.59 | 28 | 
12 | Cc1ccccc1-c1nc(C2CCN(C)CC2)cc2ccccc12 [Example 27] | 0.53 | 27 | 
